Assay results from patent publication US20060069132A1, “Azolecarboxamide herbicides” (priority 2004, published 2006).

Columns and labels:
barnyardgrass [1] = test: Test B pre-/postemergence herbicide test; type: in vivo, Echinochloa crus-galli; details: for Barnyardgrass plant response rating (0 to 100 scale) / Plant response rating, Barnyardgrass: preemergence; for Barnyardgrass plant response rating: postemergence, scale 0 (no effect) to 100 (complete control)
In short: (§1)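 Greenhouse pot assay with simultaneous preemergence (treated seed) and postemergence (2–18 cm seedlings) applications of surfactant-containing, non-phytotoxic solvent formulations. Response scored visually 13–15 days later on a 0–100 scale, 100 meaning complete control.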

Surinam grass = test: Test B pre-/postemergence herbicide test; type: in vivo, Urochloa decumbens; details: for Surinam Grass plant response rating (0 to 100 scale) / Plant response rating, Surinam Grass: preemergence; for Surinam Grass plant response rating: postemergence
In short: (§2)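 Evaluation is visual, comparing treated with control plants on a scale where 0 means no effect and 100 means full control. Treatments were preemergence, or postemergence on seedlings 2–18 cm tall, and held 13–15 days in the greenhouse.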

cocklebur = test: Test B pre-/postemergence herbicide test; type: in vivo, Xanthium strumarium; details: for Cocklebur plant response rating (0 to 100 scale) / Plant response rating, Cocklebur: preemergence; for Cocklebur plant response rating: postemergence, scale 0 (no effect) to 100 (complete control)
In short: as §1

corn = test: Test B pre-/postemergence herbicide test; type: in vivo, Zea mays; details: for Corn plant response rating (0 to 100 scale) / Plant response rating, Corn: preemergence; for Corn plant response rating: postemergence
In short: as §2

large crabgrass = test: Test B pre-/postemergence herbicide test; type: in vivo, Digitaria sanguinalis; details: for Crabgrass, Large plant response rating (0 to 100 scale) / Plant response rating, Crabgrass, Large: preemergence; for Crabgrass, Large plant response rating: postemergence
In short: as §2

giant foxtail = test: Test B pre-/postemergence herbicide test; type: in vivo, Setaria faberi; details: for Foxtail, Giant plant response rating (0 to 100 scale) / Plant response rating, Foxtail, Giant: preemergence; for Foxtail, Giant plant response rating: postemergence
In short: as §2

lambsquarters = test: Test B pre-/postemergence herbicide test; type: in vivo, Chenopodium album; details: for Lambsquarters plant response rating (0 to 100 scale) / Plant response rating, Lambsquarters: preemergence; for Lambsquarters plant response rating: postemergence
In short: as §2

morningglory = test: Test B pre-/postemergence herbicide test; type: in vivo, Ipomoea coccinea; details: for Morningglory plant response rating (0 to 100 scale) / Plant response rating, Morningglory: preemergence; for Morningglory plant response rating: postemergence
In short: as §1

pigweed = test: Test B pre-/postemergence herbicide test; type: in vivo, Amaranthus retroflexus; details: for Pigweed plant response rating (0 to 100 scale) / Plant response rating, Pigweed: preemergence; for Pigweed plant response rating: postemergence
In short: as §2

rice [2] = test: Test B pre-/postemergence herbicide test; type: in vivo, Oryza sativa; details: preemergence; for Rice plant response rating (0 to 100 scale): 125 g ai/ha; for Plant response rating, Rice: 500 g ai/ha
In short: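 Plants compared with untreated controls 13–15 days post-treatment and given a visual 0–100 injury score. Applications: preemergence to seeds; postemergence at 1- to 4-leaf (2–18 cm); paddy species flooded, 2-leaf stage. Vehicle non-phytotoxic, surfactant included.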

velvetleaf = test: Test B pre-/postemergence herbicide test; type: in vivo, Abutilon theophrasti; details: for Velvetleaf plant response rating (0 to 100 scale): 0 = no effect, 100 = complete control; for Velvetleaf plant response rating: postemergence
In short: as §2

blackgrass = test: Test B postemergence herbicide test; type: in vivo, Alopecurus myosuroides; details: postemergence, visual rating, scale 0 (no effect) to 100 (complete control)
In short: (§3)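 Greenhouse test; postemergence application to plants at 1–4 leaves (2–18 cm); paddy species at 2 leaves; evaluated visually vs controls at 13–15 days; scale 0–100 (100 = complete control).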

wheat = test: Test B postemergence herbicide test; type: in vivo, Triticum aestivum; set-up: key to Wheat plant response rating: 0 = no effect, 100 = complete control; details: postemergence
In short: (§4)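 Postemergence plants were sprayed with formulated test chemicals at 2 to 18 cm height (1- to 4-leaf stage); paddy species were grown to the 2-leaf stage. After 13 to 15 days in a greenhouse, injury was rated visually against untreated controls on a 0–100 scale (0 = no effect, 100 = complete control).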

wild oat = test: Test B postemergence herbicide test; type: in vivo, Avena fatua; details: postemergence
In short: as §4

rice [3] = test: Test B flooded paddy test; type: in vivo, Oryza sativa; details: 1000 g ai/ha, scale 0 to 100 (0 no effect, 100 complete control)
In short: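 Each value is a visual 0–100 response rating taken against controls 13 to 15 days after treatment in the greenhouse. Plants received formulated chemical postemergence at the 1- to 4-leaf stage or, in flooded paddy, at the 2-leaf stage.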

[4] = test system: small flower umbrella sedge; test: Test B flooded paddy test; type: in vivo, Cyperus difformis; details: 1000 g ai/ha, scale 0 to 100 (0 no effect, 100 complete control)
In short: as §3

ducksalad = test: Test B flooded paddy test; type: in vivo, Heteranthera limosa; details: 1000 g ai/ha, scale 0 to 100 (0 no effect, 100 complete control)
In short: as §3

barnyardgrass [5] = test: Test B flooded paddy test; type: in vivo, Echinochloa crus-galli; details: 1000 g ai/ha, scale 0 to 100 (0 no effect, 100 complete control)
In short: as §3

[6] = 125 g ai/ha, 0 = no effect, 100 = complete control
[7] = 500 g ai/ha, visual rating, 0 = no effect, 100 = complete control
[8] = 125 g ai/ha, visual rating, scale 0 (no effect) to 100 (complete control)
[9] = 500 g ai/ha, scale 0 to 100, 0 is no effect, 100 is complete control
[10] = 0 = no effect, 100 = complete control
[11] = 500 g ai/ha, visual rating 0-100, 0 no effect, 100 complete control
[12] = 500 g ai/ha, visual rating, scale 0 (no effect) to 100 (complete control)

SMILES: CCc1nn(C(C)(C)C)cc1C(=O)Nc1ccc(F)c(C(=O)N(CC)CC)c1 [Compound 240]
- Barnyardgrass plant response rating (0 to 100 scale) (barnyardgrass [1]; [6]): 0
- Plant response rating, Barnyardgrass (barnyardgrass [1]; [7]): 70
- Barnyardgrass plant response rating (barnyardgrass [1]; 125 g ai/ha, visual rating): 0
- Barnyardgrass plant response rating (barnyardgrass [1]; 500 g ai/ha, visual rating): 0
- Surinam Grass plant response rating (0 to 100 scale) (Surinam grass; [6]): 0
- Plant response rating, Surinam Grass (Surinam grass; [7]): 20
- Surinam Grass plant response rating (Surinam grass; [8]): 0
- Surinam Grass plant response rating (Surinam grass; [9]): 20
- Cocklebur plant response rating (0 to 100 scale) (cocklebur; [6]): 0
- Plant response rating, Cocklebur (cocklebur; [7]): 0
- Cocklebur plant response rating (cocklebur; 125 g ai/ha, visual rating): 0
- Cocklebur plant response rating (cocklebur; 500 g ai/ha, visual rating): 20
- Corn plant response rating (0 to 100 scale) (corn; [6]): 0
- Plant response rating, Corn (corn; [7]): 0
- Corn plant response rating (corn; [8]): 0
- Corn plant response rating (corn; [9]): 10
- Crabgrass, Large plant response rating (0 to 100 scale) (large crabgrass; [6]): 20
- Plant response rating, Crabgrass, Large (large crabgrass; [7]): 100
- Crabgrass, Large plant response rating (large crabgrass; [8]): 0
- Crabgrass, Large plant response rating (large crabgrass; [9]): 20
- Foxtail, Giant plant response rating (0 to 100 scale) (giant foxtail; [6]): 0
- Plant response rating, Foxtail, Giant (giant foxtail; [7]): 80
- Foxtail, Giant plant response rating (giant foxtail; [8]): 0
- Foxtail, Giant plant response rating (giant foxtail; [9]): 0
- Lambsquarters plant response rating (0 to 100 scale) (lambsquarters; [6]): 0
- Plant response rating, Lambsquarters (lambsquarters; [7]): 80
- Lambsquarters plant response rating (lambsquarters; [8]): 20
- Lambsquarters plant response rating (lambsquarters; [9]): 50
- Morningglory plant response rating (0 to 100 scale) (morningglory; [6]): 0
- Plant response rating, Morningglory (morningglory; [7]): 0
- Morningglory plant response rating (morningglory; [8]): 20
- Morningglory plant response rating (morningglory; [9]): 30
- Pigweed plant response rating (0 to 100 scale) (pigweed; [6]): 0
- Plant response rating, Pigweed (pigweed; [7]): 100
- Pigweed plant response rating (pigweed; [8]): 0
- Pigweed plant response rating (pigweed; [9]): 50
- Rice plant response rating (0 to 100 scale) (rice [2]; [10]): 0
- Plant response rating, Rice (rice [2]; visual rating, 0 = no effect, 100 = complete control): 0
- Velvetleaf plant response rating (0 to 100 scale) (velvetleaf; 125 g ai/ha, preemergence): 0
- Velvetleaf plant response rating (velvetleaf; [8]): 0
- Velvetleaf plant response rating (velvetleaf; [9]): 10
- Blackgrass plant response rating (blackgrass; 125 g ai/ha): 0
- Blackgrass plant response rating (blackgrass; 500 g ai/ha): 10
- Wheat plant response rating (wheat; [8]): 0
- Wheat plant response rating (wheat; [9]): 20
- Oat, Wild plant response rating (wild oat; [8]): 0
- Oat, Wild plant response rating (wild oat; [9]): 0
- Rice plant response rating (rice [3]): 0
- Sedge, Umbrella plant response rating [4]: 60
- Ducksalad plant response rating (ducksalad): 0
- Barnyardgrass plant response rating (barnyardgrass [5]): 0

SMILES: CCN(CC)C(=O)c1cccc(NC(=O)c2nn(C(C)(C)C)cc2C(F)(F)F)c1 [Compound 169]
- Barnyardgrass plant response rating (0 to 100 scale) (barnyardgrass [1]; [6]): 0
- Plant response rating, Barnyardgrass (barnyardgrass [1]; [11]): 10
- Barnyardgrass plant response rating (barnyardgrass [1]; 125 g ai/ha, visual rating): 0
- Barnyardgrass plant response rating (barnyardgrass [1]; 500 g ai/ha, visual rating): 10
- Surinam Grass plant response rating (0 to 100 scale) (Surinam grass; [6]): 0
- Plant response rating, Surinam Grass (Surinam grass; [11]): 10
- Surinam Grass plant response rating (Surinam grass; [8]): 0
- Surinam Grass plant response rating (Surinam grass; [12]): 10
- Cocklebur plant response rating (0 to 100 scale) (cocklebur; [6]): 0
- Plant response rating, Cocklebur (cocklebur; [11]): 0
- Cocklebur plant response rating (cocklebur; 125 g ai/ha, visual rating): 0
- Cocklebur plant response rating (cocklebur; 500 g ai/ha, visual rating): 0
- Corn plant response rating (0 to 100 scale) (corn; [6]): 0
- Plant response rating, Corn (corn; [11]): 0
- Corn plant response rating (corn; [8]): 10
- Corn plant response rating (corn; [12]): 10
- Crabgrass, Large plant response rating (0 to 100 scale) (large crabgrass; [6]): 0
- Plant response rating, Crabgrass, Large (large crabgrass; [11]): 40
- Crabgrass, Large plant response rating (large crabgrass; [8]): 10
- Crabgrass, Large plant response rating (large crabgrass; [12]): 10
- Foxtail, Giant plant response rating (0 to 100 scale) (giant foxtail; [6]): 0
- Plant response rating, Foxtail, Giant (giant foxtail; [11]): 10
- Foxtail, Giant plant response rating (giant foxtail; [8]): 0
- Foxtail, Giant plant response rating (giant foxtail; [12]): 0
- Lambsquarters plant response rating (0 to 100 scale) (lambsquarters; [6]): 0
- Plant response rating, Lambsquarters (lambsquarters; [11]): 60
- Lambsquarters plant response rating (lambsquarters; [8]): 40
- Lambsquarters plant response rating (lambsquarters; [12]): 60
- Morningglory plant response rating (0 to 100 scale) (morningglory; [6]): 0
- Plant response rating, Morningglory (morningglory; [11]): 10
- Morningglory plant response rating (morningglory; [8]): 20
- Morningglory plant response rating (morningglory; [12]): 70
- Pigweed plant response rating (0 to 100 scale) (pigweed; [6]): 0
- Plant response rating, Pigweed (pigweed; [11]): 100
- Pigweed plant response rating (pigweed; [8]): 20
- Pigweed plant response rating (pigweed; [12]): 40
- Rice plant response rating (0 to 100 scale) (rice [2]; [10]): 0
- Plant response rating, Rice (rice [2]; visual rating 0-100, 0 no effect, 100 complete control): 0
- Velvetleaf plant response rating (0 to 100 scale) (velvetleaf; 125 g ai/ha, preemergence): 0
- Plant response rating, Velvetleaf (velvetleaf; 500 g ai/ha, visual rating 0-100, 0 no effect, 100 complete control, preemergence): 0
- Velvetleaf plant response rating (velvetleaf; [8]): 0
- Velvetleaf plant response rating (velvetleaf; [12]): 0
- Blackgrass plant response rating (blackgrass; 125 g ai/ha): 0
- Blackgrass plant response rating (blackgrass; 500 g ai/ha): 10
- Wheat plant response rating (wheat; [8]): 0
- Wheat plant response rating (wheat; [12]): 0
- Oat, Wild plant response rating (wild oat; [8]): 10
- Oat, Wild plant response rating (wild oat; [12]): 10
- Rice plant response rating (rice [3]; visual rating, 13 to 15 days): 0
- Sedge, Umbrella plant response rating ([4]; visual rating, 13 to 15 days): 0
- Ducksalad plant response rating (ducksalad; visual rating, 13 to 15 days): 0
- Barnyardgrass plant response rating (barnyardgrass [5]; visual rating, 13 to 15 days): 0
